Test results published in patent US20110229499A1, “METHOD FOR TREATMENT OF VASCULAR HYPERPERMEABILITY” (priority 2010, published 2011).

Test system: Rat lung microvascular endothelial cells
Assay: Adherens junction damage, beta catenin immunofluorescence
Type: cell-based
Conditions: SCF 100 ng/ml pre-treatment 1 hour
Procedure: Rat lung microvascular endothelial cells were grown on fibronectin coated chamber slides in complete MCDB-3 media for 24 hours. The cells were pre-treated with SCF (100 ng/ml) for 1 hour. The cells exposed to shock serum or were transfected with caspase-3 (5 μg/ml) for 60 minutes. Caspase-3 were exposed to TransIT (10 μl/ml) for 15 minutes before exposure to the cells. The cells were washed in PBS, permeabilized with Triton X-100 and fixed with 4% paraformaldehyde. The cells were then washed in PBS, blocked with 2.5% BSA-PBS and exposed to polyclonal antibody against β-catenin overnight at 4° C. The cells were washed, mounted in an antifade-DAPI mountant and visualized utilizing a fluorescent microscope.

## SCF: stem cell factor, a soluble factor (protein) produced by stem cells
caspase-3 5 μg/ml transfected 60 minutes
  caspase-3 mediated adherens junction disruption: did not protect
Shock serum 60 minutes
  shock serum-induced adherens junction disruption: showed protection
